Source: US8815234B2, “Treatment of human or animal body surface infection” (Insense Limited, priority 2009, dated 2014)

Test system: Trichophyton rubrum
Assay: In vitro flat bed static diffusion model, kill curves of Trichophyton rubrum
Format: cell-based
Conditions: for effect of peroxidase in disc at lowest concentration compared to the test treatment alone: 1 μg ml^−1 enzyme in disc plus active topical treatment; for potentiation of the effects of the topical treatment by peroxidase within the disc (words): 1, 100 and 500 μg/ml enzyme in disc plus active topical treatment; for relative potency of horseradish peroxidase versus lactoperoxidase in enhancing fungal killing (words): enzyme in disc plus active topical treatment
Experimental: Test discs were soaked in 50% serum containing 10^7 fungal cells to re-create a high protein environment. They were placed on a gel bed, also containing 50% serum to mimic contact with the nail bed. The discs were dosed with aqueous solutions of either horse radish peroxidase or lactoperoxidase, each set of discs having different dose levels of the enzymes. Control discs were left with no peroxidase of any kind. The experiment was started by applying hydrogen peroxide generating stratified patches (see below) to the surfaces of most of the test discs, and these were left in place for defined periods of time. Some discs were left uncovered as additional experimental controls to determine how well the fungal cells survived when left untreated. At set time-intervals, representative discs were removed for sampling, and the numbers of surviving fungal cells were determined by standard methods.
An in vitro flat bed static diffusion model was utilised, based upon the techniques described in “In vitro diffusion bed, 3-day repeat challenge ‘capacity’ test for antimicrobial wound dressings”, J. Greenman, R. M. S. Thorn, S. Saad, A. Austin International Wound Journal (2006), 3, 322-329.
The test inoculum was prepared by emulsifying mature surface growth biomass of Trichophyton rubrum on potato dextrose agar in Saboraud liquid medium, removing the suspension, vortex mixing, and then allowing large particles to settle out of solution. The resulting suspension was adjusted via spectrophotometry to give a standardised inoculum around 10^7 cfu ml^−1, which is sufficiently dense to enable any fungicidal effects to be detected (>10^3 cfu reduction is seen as indicative of a cidal effect).
A 100 μl volume of the defined inocula was re-suspended in replicate cellulose discs on the surface of a poly-AMPS test bed (the formulation of which is identical to the Layer 1 hydrogel as described in Example 1, but cast as a 25 g gel sheet per 10×10 cm dish), whereby test products can then be applied (FIG. 1). A two layer dressing was tested. The layers were prepared as described in Example 1. Lactoperoxidase or horse radish peroxidase enzymes were prepared by dissolving in analytical water at the required concentration prior to use. It is thought that lactoperoxidase may potentiate any antifungal effects of the novel topical treatment, and for some of the experimental systems cellulose discs were pre-treated with a lactoperoxidase or horseradish peroxidise solution to ascertain differential effects.
The two layer dressings were activated by bringing the two layers together. The hydrogel sheet was placed into contact with the cellulose disc and the dry film then applied to the uppermost surface of the hydrogel sheet. Test beds were incubated at 28° C., and at set time intervals (0, 1, 2, 4 & 24 h); cellulose discs were removed, re-suspended in PBSa, serially diluted and then spiral plated onto Saboraud dextrose agar. After incubation (5 days) the number of dermatophyte survivors at different time points after treatment exposure was determined by colony counting (cfu disc^−1). The results were graphed and analysed using GraphPad Prism (v.4).

## horseradish peroxidase [Horseradish peroxidise]
  effect of peroxidase in disc at lowest concentration compared to the test treatment alone: has a significant effect
  potentiation of the effects of the topical treatment by peroxidase within the disc (words): potentiates the effects of the topical treatment in a concentration dependent manner
Listed as horse radish peroxidise
  potentiation of the effects of the topical treatment by peroxidase within the disc (words): potentiate the effects of the topical treatment
Listed as horse radish peroxidase
  relative potency of horseradish peroxidase versus lactoperoxidase in enhancing fungal killing (words): more potent than lactoperoxidase
Listed as horseradish peroxidise
  relative potency of horseradish peroxidase versus lactoperoxidase in enhancing fungal killing (words): more efficacious

## lactoperoxidase
  effect of peroxidase in disc at lowest concentration compared to the test treatment alone: no significant effect compared to the test treatment alone
  potentiation of the effects of the topical treatment by peroxidase within the disc (words): potentiate the effects of the topical treatment in a concentration dependant manner
Listed as peroxidise
  potentiation of the effects of the topical treatment by peroxidase within the disc (words): potentiate the effects of the topical treatment
